In paper PMC12736008, “New Dimethylpyridine-3-Carboxamide Derivatives as MMP-13 Inhibitors with Anticancer Activity” (Molecules, 2025):

Legend:
A375 (melanoma) cells = assay: MTT assay, A375; assay type: cell-based, human; conditions: for reduction in cancer cell viability / anticancer potential (A375): MTT, 24 h, 0.004 mM to 0.5 mM
Text: As mentioned earlier, MMP-13 is overexpressed and functionally significant in various cancers, including melanoma and colorectal carcinoma. For instance, high MMP-13 levels have been correlated with metastasis and poor survival in melanoma patients. In colorectal cancer, elevated MMP-13 activity has been observed in tumors compared to normal mucosa, and its expression is associated with a worse prognosis. Based on computational studies, four out of the eleven designed compounds showing the most promising predicted activity against MMP-13 were selected for biological evaluation. For the MTT assay, NHDF cells were used as the healthy reference cell line, while A375 (melanoma) and HT-29 (colorectal adenocarcinoma cancer) cell lines were chosen as cancer models.
Experiments were conducted using two cancer cell lines and, as a control, a normal human dermal fibroblasts (NHDF; ATCC PCS-201-012). The A375 cell line (human melanoma, ATCC CRL-1619), and HT-29 cell line (human colorectal adenocarcinoma, ATCC HTB-38) were cultured in DMEM (Dulbecco’s Modified Eagle Medium, Institute of Immunology and Experimental Therapy (IITD), Wrocław, Poland) supplemented with 1% antibiotics (10 U/mL penicillin and 10 µg/mL streptomycin, Sigma-Aldrich, St Louis, MO, USA), 1% glutamine (Sigma-Aldrich, St Louis, MO, USA) and 10% fetal bovine serum (FBS, Gibco, Grand Island, NY, USA). For NHDF cultures, α-MEM (α-Minimum Essentials Medium, Institute of Immunology and Experimental Therapy (IITD), Poland) was used with the same supplement combination as for the cancer cell lines. All cells were maintained in a humidified incubator (INCO 105, Memmert GmbH, Schwabach, Germany) at 37 °C with 5% CO2 and 95% humidity. Cells were passaged routinely by trypsinization (twice a week). For the MTT (3-(4,5-simethylthiazol-2,5-diphenyltetrazolinum bromide), Sigma, St. Louis, MO, USA) assay, cells were used after 2–4 passages, when they reached approximately 80% confluence.
All tested compounds were dissolved in DMSO to obtain stock solutions with a final concentration of 50 mM (3a, 3b, 3e), 40 mM (3f, 3g, 3i, 3j), and 35 mM (3h, 3k). […] In the next step, 10 µL of each stock solution was added to 990 µL of supplemented medium.
The MTT assay was performed in 96-well plates, with a seeding density of 1 × 10^4 cells per well. All cell lines were incubated for 24 h in their respective media: α-MEM for (NHDF cells) and DMEM for (A375 and HT-29) cells. After incubation, the medium was removed and replaced with fresh medium containing the tested compounds at concentrations ranging from 0.004 mM to 0.5 mM. […] Absorbance was measured spectrophotometrically at a wavelength of 570 nm using a BioTek SYNERGY H1 microplate reader (Agilent, Santa Clara, CA, USA).

HSA/Dansyl-L-Gly = target: T1, HSA/Dansyl-L-Gly (Homo sapiens, UniProt P02768); assay: Marker displacement from HSA/Dansyl-L-Gly complex (Sudlow site I); assay type: binding; conditions: room temperature
T1 construct: purchased Sigma-Aldrich
Text: The human serum albumin (HSA) has two main drug-binding sites, known as Sudlow site I and Sudlow site II, located in subdomains IIA and IIIA of the albumin structure, respectively. […] In addition to these main sites, HSA has the capacity to bind ligands in other regions, including histidine residues, the N-terminus of the molecule, and metal binding sites. However, it is most common for drugs to bind to Sudlow I and Sudlow II. In order to study binding to a specific site in the protein, fluorescent markers, Dansyl-L-Gly and Dansyl-L-Phe, were used. The Dansyl-L-Gly interacts with Sudllow I, while the Dansyl-L-Phe prefers Sudllow II [41, 42]. The tested compounds were added in portions to the solution that contained the HSA/marker complex, and the fluorescence spectrum was recorded (Figure 11 and Figure 12). The percentage of compound exchange in the albumin pocket was calculated using Equation (6):(6) displacement % =F^0 −F /F^0 where F^0 is the maximum fluorescence intensity of HSA/Dansyl-L-Gly complex, and F is the maximum fluorescence intensity after a quencher addition. The calculated data were collected in Table 6. It was observed that only compound 3b displaces from the Dansyl-L-Gly binding site, as indicated by a decrease in fluorescence intensity with increasing concentration of this derivative, but only to approximately 8%. […] The band intensity increases slightly, which may be due to the dilution of the solution. […] This, in turn, results in a reduction in the number of collisions and reabsorptions, thereby enhancing the efficiency of fluorescence emission. […]
Solutions of Dansyl-L-Phe (Chem-Norm Biotech, Wuhan, China) and Dansyl-L-Gly (Sigma-Aldrich, Tokyo, Japan) were prepared by dissolving them separately in ethanol to a final concentration of 1·10^−3 mol/dm^3. […] Spectra were recorded at room temperature using a Cary Eclipse 500 spectrophotometer (Agilent, Santa Clara, CA, USA) with an excitation wavelength of 350 nm, and an emission range of 410–670 nm and the PMT voltages were (V) 700 and 650 for Dansyl-L-Gly and Dansyl-L-Phe, respectively. […]

T1 sequence (P02768 25-609): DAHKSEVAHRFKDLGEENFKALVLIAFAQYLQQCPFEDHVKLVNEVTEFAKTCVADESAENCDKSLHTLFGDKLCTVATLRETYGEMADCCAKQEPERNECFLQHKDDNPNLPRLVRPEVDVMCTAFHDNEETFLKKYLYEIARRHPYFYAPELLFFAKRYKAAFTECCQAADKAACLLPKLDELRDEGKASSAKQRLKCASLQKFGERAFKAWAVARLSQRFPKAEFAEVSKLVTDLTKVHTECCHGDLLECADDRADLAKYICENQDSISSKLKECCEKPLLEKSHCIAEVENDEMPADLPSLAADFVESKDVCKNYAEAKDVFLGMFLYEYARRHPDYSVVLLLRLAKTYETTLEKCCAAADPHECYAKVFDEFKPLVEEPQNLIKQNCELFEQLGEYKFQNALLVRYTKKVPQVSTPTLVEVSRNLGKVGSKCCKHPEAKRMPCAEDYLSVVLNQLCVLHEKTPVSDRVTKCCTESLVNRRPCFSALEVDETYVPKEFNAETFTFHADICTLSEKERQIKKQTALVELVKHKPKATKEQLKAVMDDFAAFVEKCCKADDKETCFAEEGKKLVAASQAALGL

Row | Compound | selectivity ratio A375:NHDF (A375 (melanoma) cells; at a concentration of 0.5 mM) | reduction in cancer cell viability / anticancer potential (A375) (A375 (melanoma) cells) | Marker Displacement Percentage HSA/Dansyl-L-Gly (HSA/Dansyl-L-Gly)
1 | Cc1cc(C)c(C(=O)NCC(=O)NCc2ccc(Oc3ccccc3)cc2)c(S)n1 [Compound 3b, 4,6-dimethyl-N-{2-[(4-phenoxybenzyl)amino]-2-oxoethyl}-2-sulfanylpyridine-3-carboxamide] | 0.56 |  | 
2 | Cc1cc(C)c(C(=O)NCC(=O)NCc2ccc(Cl)cc2)c(S)n1 [Compound 3c, N-{2-[(4-chlorobenzyl)amino]-2-oxoethyl}-4,6-dimethyl-2-sulfanylpyridine-3-carboxamide] |  | strongest reduction in cancer cell viability | no quenching occurs at all
3 | Cc1cc(C)c(C(=O)NCC(=O)NCc2ccccc2Cl)c(S)n1 [Compound 3d, N-{2-[(2-chlorobenzyl)amino]-2-oxoethyl}-4,6-dimethyl-2-sulfanylpyridine-3-carboxamide] |  | strongest reduction in cancer cell viability | no quenching occurs at all
4 | Cc1cc(C)c(C(=O)NCC(=O)NCc2ccccc2)c(S)n1 [Compound 3g, 4,6-dimethyl-N-[2-(benzylamino)-2-oxoethyl]-2-sulfanylpyridine-3-carboxamide] |  | only moderate anticancer potential | no quenching occurs at all
